# Measured values: US8501713B2, “Drug combinations for the treatment of duchenne muscular dystrophy” (Summit Corporation PLC, priority 2007, dated 2013)
# Tested on: Utrophin A promoter linked to a luciferase reporter gene
# Experiment: Luciferase reporter assay (murine H2K cells)
# Format: cell-based
# Conditions: for activity at 10 µM: Mus musculus, H2K mdx, luciferase level relative to control, H2K/mdx/Utro A reporter cells, compound 10 μM final concentration, read-out: Activity; for Activity: luciferase reporter assay in murine H2K cells, classified relative to control
# Description: 1. Luciferase Reporter Assay (Murine H2K Cells)
# The cell line used for the screen is an immortalized mdx mouse H2K cell line that has been stably transfected with a plasmid containing […] fragment of the Utrophin A promoter including the first untranslated exon linked to a luciferase reporter gene. Under conditions of low temperature and interferon containing media, the cells remain as myoblasts. These are plated into 96 well plates and cultured in the presence of compound for three days. The level of luciferase is then determined by cell lysis and reading of the light output from the expressed luciferase gene utilising a plate luminometer.
# H2K/mdx/Utro A reporter Cell Line Maintenance
# The cells were grown at 33° C. in the presence of 10% CO2. To remove the myoblasts for platting, they were incubated with Trypsin EDTA until the monolayer started to detach.
# The plates were then incubated at 33° C. in the presence of 10% CO2 for 24 hrs. Compounds were dosed by adding 10 μl of diluted compound to each well giving a final concentration of 10 μM. The plates were then incubated for a further 48 hrs. Cells were then lysed in situ following the manufacture's protocols (Promega Steady-Glo Luciferase Assay System (E2520). Then counted for 10 seconds using a plate luminometer (Victor1420).
# Compounds for screening were stored at −20° C. as 10 mM stocks in 100% DMSO until required.
# Biological activity as assessed using the luciferase reporter assay in murine H2K cells, and is classified as follows: […]
structure (smiles),measurement,value
"CS(=O)(=O)c1ccc2nc(-c3ccc(Cl)cc3)sc2c1 [Example 406, 2-(4-chlorophenyl)-6-(methylsulfonyl)benzo[d]thiazole]",activity at 10 µM,> 401%
O=C(Nc1ccc(-c2nc3ccccc3[nH]2)cc1)c1ccco1 [Example 562],Activity,+++ (Between 301% and 400% relative to control)
"CC(C)C(=O)Nc1ccc2oc(-c3ccc(Cl)cn3)nc2c1 [Example 270, N-(2-(5-chloropyridin-2-yl)benzo[d]oxazol-5-yl)isobutyramide]",activity at 10 µM,> 401%
Cc1ccc(NC(=O)Nc2nc3ccccc3s2)cc1 [Example 637],Activity,+++ (Between 301% and 400% relative to control)
CCCS(=O)(=O)c1ccc2oc(-c3ccc(Cl)cc3)nc2c1 [Example 578],Activity,+ (Up to 200% relative to control)
"CCCCC(=O)Nc1ccc2oc(-c3ccccc3)nc2c1 [Example 11, N-(2-phenylbenzo[d]oxazol-5-yl)pentanamide]",activity at 10 µM,201 to 300%
"CCCC(=O)Nc1ccc2oc(-c3cccc(N(C)C)c3)nc2c1 [Example 201, N-(2-(3-(dimethylamino)phenyl)benzo[d]oxazol-5-yl)butyramide]",activity at 10 µM,< 200%
"Cc1ccc(C(=O)Nc2ccc3oc(-c4cccnc4)nc3c2)cc1 [Example 41, 4-methyl-N-(2-(pyridin-3-yl)benzo[d]oxazol-5-yl)benzamide]",activity at 10 µM,< 200%
CCc1ccc2oc(-c3ccc(C)c(N)c3)nc2c1 [Example 625],Activity,++++ (Above 401% relative to control)
"CCS(=O)(=O)c1ccc2oc(-c3cccs3)nc2c1 [Example 429, 5-(ethylsulfonyl)-2-(thiophen-2-yl)benzo[d]oxazole]",activity at 10 µM,201 to 300%
Nc1ccc(-c2nc3ccc(N)cc3o2)cc1 [Example 544],Activity,++ (Between 201% and 300% relative to control)
"CC(O)c1ccc2oc(-c3ccc(Cl)c(Cl)c3)nc2c1 (stereo not drawn) [Example 456, 2-(3′,4′-Dichlorophenyl)-5-(1′-hydroxyethyl)-benzoxazole]",activity at 10 µM,> 401%
"O=C(CCN1CCOCC1)Nc1ccc2oc(-c3ccccc3)nc2c1 [Example 285, 3-morpholino-N-(2-phenylbenzo[d]oxazol-5-yl)propanamide]",activity at 10 µM,< 200%
"CCC(=O)Nc1ccc2oc(-c3cccnc3)nc2c1 [Example 53, N-(2-(pyridin-3-yl)benzo[d]oxazol-5-yl)propionamide]",activity at 10 µM,< 200%
"CCN(CC)c1ccc(-c2nc3cc(NC(=O)c4ccncc4)ccc3o2)cc1 [Example 61, N-(2-(4-(diethylamino)phenyl)benzo[d]oxazol-5-yl)isonicotinamide]",activity at 10 µM,< 200%
"CCS(=O)(=O)c1ccc2oc(-c3ccc(Cl)cc3)nc2c1 [Example 180, 2-(4-chlorophenyl)-5-(ethylsulfonyl)benzo[d]oxazole]",activity at 10 µM,> 401%
"CCS(=O)(=O)c1ccc2oc(-c3ccc(N)cc3O)nc2c1 [Example 447, 5-Amino-2-(5-(ethylsulfonyl)benzo[d]oxazol-2-yl)phenol]",activity at 10 µM,201 to 300%
"Nc1ccc2oc(-c3ccc(N4CCOCC4)cc3)nc2c1 [Example 159, 2-(4-morpholinophenyl)benzo[d]oxazol-5-amine]",activity at 10 µM,< 200%
O=C(Nc1ccccc1F)c1sc2ccccc2c1Cl [Example 621],Activity,++++ (Above 401% relative to control)
CCC(=O)Nc1ccc2oc(-c3cccc(C)c3)nc2c1 [Example 668],Activity,++ (Between 201% and 300% relative to control)
Cc1nc2ccc(NC(=O)NC(=O)c3ccccc3Cl)cc2o1 [Example 468],Activity,+ (Up to 200% relative to control)
"CCCC(=O)Nc1ccc2oc(C3CCCCC3)nc2c1 [Example 249, N-(2-cyclohexylbenzo[d]oxazol-5-yl)butyramide]",activity at 10 µM,< 200%
"CCCC(=O)Nc1ccc2oc(-c3cccc(C(F)(F)F)c3)nc2c1 [Example 225, N-(2-(3-(trifluoromethyl)phenyl)benzo[d]oxazol-5-yl)butyramide]",activity at 10 µM,< 200%
c1ccc(-c2nnc(SCc3nc4ccccc4[nH]3)o2)cc1 [Example 530],Activity,+ (Up to 200% relative to control)
Cc1ccc2oc(-c3ccc(Cl)c(N)c3)nc2c1 [Example 636],Activity,+++ (Between 301% and 400% relative to control)
"Fc1cc2nc(-c3ccc4ccccc4c3)oc2cc1F [Example 452, 5,6-Difluoro-2-(naphthalen-2-yl)benzo[d]oxazole]",activity at 10 µM,> 401%
Nc1ccc2oc(-c3ccc(Cl)c(Cl)c3)nc2c1 [Example 480],Activity,++ (Between 201% and 300% relative to control)
O=[N+]([O-])c1ccc(-c2nc3ccccc3o2)cc1 [Example 477],Activity,+ (Up to 200% relative to control)
"c1ccc(-c2nc3c(ccc4ccccc43)o2)cc1 [Example 86, 2-phenylnaphtho[1,2-d]oxazole]",activity at 10 µM,301 to 400%
CCc1nc2cc(S(=O)(=O)CC)ccc2o1 [Example 572],Activity,+ (Up to 200% relative to control)
"COc1ccc(C(=O)Nc2ccc3oc(-c4ccc(Cl)cc4)nc3c2)cc1 [Example 91, N-(2-(4-chlorophenyl)benzo[d]oxazol-5-yl)-4-methoxybenzamide]",activity at 10 µM,< 200%
Cc1ccc2nc(-c3ccc(NC(=O)C(C)C)cc3)oc2c1 [Example 564],Activity,+ (Up to 200% relative to control)
Cc1ccc(-c2nc3ccccc3[nH]2)cc1 [Example 613],Activity,+++ (Between 301% and 400% relative to control)
"Cc1ccc(CSc2nc3cc([N+](=O)[O-])ccc3o2)cc1 [Example 382, 2-(4-methylbenzylthio)-5-nitrobenzo[d]oxazole]",activity at 10 µM,< 200%
"c1ccc(-c2nc3ccccc3o2)nc1 [Example 147, 2-(pyridin-2-yl)benzo[d]oxazole]",activity at 10 µM,< 200%
"O=C(Nc1ccc2oc(-c3ccccc3)nc2c1)c1ccccc1 [Example 59, N-(2-phenylbenzo[d]oxazol-5-yl)benzamide]",activity at 10 µM,201 to 300%
"CCN(CC)c1ccc(-c2nc3cc(NC(=O)c4cc(Cl)cc(Cl)c4)ccc3o2)cc1 [Example 70, 3,5-dichloro-N-(2-(4-(diethylamino)phenyl)benzo[d]oxazol-5-yl)benzamide]",activity at 10 µM,< 200%
"Nc1ccc2oc(SCc3ccc(Cl)cc3)nc2c1 [Example 380, 2-(4-chlorobenzylthio)benzo[d]oxazol-5-amine]",activity at 10 µM,< 200%
"CC(=O)Sc1ccc2oc(-c3ccc(Cl)cc3)nc2c1 [Example 407, S-2-(4-chlorophenyl)benzo[d]oxazol-5-yl ethanethioate]",activity at 10 µM,< 200%
"CC(C)CN(CC(C)C)c1ccc2oc(-c3ccc(Cl)cc3)nc2c1 [Example 335, 2-(4-chlorophenyl)-N,N-diisobutylbenzo[d]oxazol-5-amine]",activity at 10 µM,< 200%
"CS(=O)(=O)c1ccc2oc(-c3ccc(Cl)cc3)nc2c1 [Example 400, 2-(4-chlorophenyl)-5-(methylsulfonyl)benzo[d]oxazole]",activity at 10 µM,201 to 300%
"CC(C)C(=O)Nc1ccc2cc(-c3ccccc3)[nH]c2c1 [Example 375, N-(2-phenyl-1H-indol-6-yl)isobutyramide]",activity at 10 µM,< 200%
Cc1ccccc1C(=O)Nc1nc2ccccc2[nH]1 [Example 648],Activity,+++ (Between 301% and 400% relative to control)
O=C(Nc1ccc(-c2nc3ccccc3[nH]2)cc1)c1cccs1 [Example 585],Activity,++++ (Above 401% relative to control)
COc1ccc(-c2nc3ccccc3s2)cc1NC(C)=O [Example 542],Activity,++ (Between 201% and 300% relative to control)
"CC(C)C(=O)Nc1ccc2oc(-c3ccc4c(c3)OCO4)nc2c1 [Example 300, N-(2-(benzo[d][1,3]dioxol-5-yl)benzo[d]oxazol-5-yl)isobutyramide]",activity at 10 µM,301 to 400%
Nc1cc(-c2nc3ccccc3s2)ccc1Cl [Example 592],Activity,++++ (Above 401% relative to control)
"CCCC(=O)Nc1cccc2oc(-c3ccc(C)cc3)nc12 [Example 235, N-(2-p-tolylbenzo[d]oxazol-4-yl)butyramide]",activity at 10 µM,< 200%
Cc1nc(Nc2nc3ccccc3o2)nc2c1CCC2 [Example 678],Activity,++ (Between 201% and 300% relative to control)
Nc1c(C(=O)Nc2ccc(F)cc2)sc2nc3c(cc12)CCC3 [Example 628],Activity,++++ (Above 401% relative to control)
Nc1ccc(-c2nc3ccccc3o2)cc1 [Example 478],Activity,++ (Between 201% and 300% relative to control)
CC(=O)c1c(C)nc(Nc2nc3ccccc3o2)nc1C [Example 681],Activity,++ (Between 201% and 300% relative to control)
Cc1ccc2nc(-c3ccc(NC(=O)c4cccs4)cc3)oc2c1 [Example 672],Activity,++ (Between 201% and 300% relative to control)
"O=[N+]([O-])c1cnc2oc(-c3ccccc3)nc2c1 [Example 153, 6-nitro-2-phenyloxazolo[5,4-b]pyridine]",activity at 10 µM,< 200%
"CC(=O)Nc1ccc(-c2nc3cc(Br)ccc3o2)cc1 [Example 359, N-(4-(5-bromobenzo[d]oxazol-2-yl)phenyl)acetamide]",activity at 10 µM,> 401%
CC(=O)Nc1ccc2oc(-c3ccc(Cl)cc3Cl)nc2c1 [Example 517],Activity,++ (Between 201% and 300% relative to control)
Cc1ccc2sc(NC(=O)NC(=O)c3c(Cl)cccc3Cl)nc2c1 [Example 462],Activity,+ (Up to 200% relative to control)
